The text below walks through data of patent US20240309060A1, “POLYPEPTIDE BAX/NPM INHIBITORS” (TRUSTEES OF BOSTON UNIVERSITY, priority 2023, published 2024).

Assay [1] concerns primary murine proximal tubule epithelial cells (PTEC). Description: MTT cell survival assay of kidney cells after ischemic stress in vitro induced by metabolic inhibitors. The conditions noted are these: for Cell survival data (ranking of peptides): normalized to negative control GFP fragment, FIG. 14; for Cytoprotective effects during ischemic stress in vitro: peptides 100 nM, metabolic inhibitors 60 min, recovery 6 hr, vs GFP negative control, FIG. 13. It is filed as cell-based. How it is done: FIG. 2 depicts an NPMB1 Alanine Scan. Relative kidney cell survival rate after 70 min ischemic stress in vitro induced by metabolic inhibitors in the presence of NPMB1 (control) vs. 19 different NPMBx polypeptides with single alanine substitutions (2 additional NPMB1 alanine residues were not substituted). Residue numbers (x axis) reflect Bax sequence that binds human NPM1; Survival data are normalized to NPMB1; post-ischemic kidney cell survival is shown in tertiles: (left-most group: 5-40% survival; middle-group: 55-70% and third group: 80-95%); n=3 separate experiments.
Relative kidney cell survival rate after 70 min ischemic stress in vitro induced by transient exposure to metabolic inhibitors in the presence of NPMB polypeptides (Agents 2, 5, 7, 14 that reflect alanine scan polypeptides A173, A187, A179, A176) vs. a non—specific polypeptide (GFP fragment). Survival data normalized to baseline (no stress); *P<0.01vs. baseline; t P<0.05 vs. stress; data represent 3 separate experiments; error bars represent mean+SD.
FIGS. 13A-13B depict the cytoprotective effects of select therapeutic peptides during ischemic stress in vitro. Primary murine proximal tubule epithelial cells (PTEC) were transiently exposed to metabolic inhibitors for 60 min and allowed to recover for 6 hr. to simulate ischemia in vivo; MTT assay estimated cell survival. “Control” (open bars); is a GFP fragment of similar size to the therapeutic peptides was used a negative control; NPMB1 (prototype) serves as a positive control. […] All peptides contained the nuclear localizing sequence (NLS) to enhance peptide delivery to the kidney, a beta linker and both carboxy-and amino terminal modifications to reduce susceptibility to protease digestion; data are mean+standard error; n=3 separate experiments. Figure discloses SEQ ID NOS 139, 134-135, 128, 127, and 138, respectively, in order of appearance.
Structure activity relationships of NPMB1 derivatives were determined through alanine scanning In these studies, 19 polypeptides were produced using methods shown in FIGS. 8-11 and their effect of kidney cell survival after ischemic stress was characterized using the MTT cell survival assay. Based on determination of relative kidney cell survival rate, polypeptides were grouped according to activity as shown in FIG. 2 (orange: 5-40% survival; blue 55-70% survival, or green 80-95% survival).

In the next assay the target is human NPM1 (Homo sapiens, UniProt P06748). The assay is described as follows: Surface plasmon resonance (SPR) binding of peptides to human NPM1. The conditions noted are these: human NPM1, FIG. 14. The source says:
FIG. 14 depicts a table of the association rate, dissociation rate and the calculated equilibrium dissociation constant for 10 representative therapeutic peptides as measured by Surface Plasmon Resonance (SPR). Mean rates are derived from at least three different peptide concentrations at levels below saturation with human NPM1. Cell survival data are normalized to the negative control (a GFP fragment of similar size to the therapeutic peptides) and represent the mean of at least 3 separate experiments.
FIG. 15 depicts an on-off rate map. A graph of the off-rate (x-axis) and on-rate (y-axis) of 10 representative peptides from different sets of modified peptides. Diagonal dash-lines represent the equilibrium dissociation constant (KD) estimates the NPM1 binding affinity for each peptide based on the distance to the lines.
The 3D helical wheel projection scan predicted that 5 of 6 peptide residues (except for L185) with intermediate effects on post-ischemic cell survival cluster in a single surface domain (FIGS. 6 and 7). These surface residues are likely regulating the binding affinity Kd) between the therapeutic peptide and NPM1, the human target protein. Since binding affinity (Kd) between the peptide drug and NPMB1 partly predicts its efficacy, a high throughput, quantitative surface plasmon resonance (SPR) assay was developed.
SPR was measured for 10 novel polypeptides with select single or double mutations. Both the measured peptide “on” and “off” rates for binding human NPM1 markedly differed (FIG. 15). […] For most modified peptides, greater protection against ischemic stress positively correlated with a low Kd. […] Overall, SPR data combined with cell survival data adequately informs the selection of therapeutic peptides based on the quantifiable effects of R group modifications on these parameters. The combination of SPR binding affinity and cell survival data in vitro effectively rank orders therapeutic peptides for in vivo testing in animals.

Assay [2] has as its target human nucleophosmin (NPM1) (Homo sapiens, UniProt P06748). The conditions noted are these: previously discovered by the applicant's team; cited from earlier work.
Assay [3] relates to human nucleophosmin (NPM1). The conditions noted are these: in vivo (Wang 2019); cited from earlier work.
The subject of assay [4] is in vivo mouse model of ischemic AKI. As to conditions: J Am Soc Nephrol 30: 50-62, 2019; cited from earlier work.
The subject of assay [5] is primary murine proximal tubule epithelial cells (PTEC). As to conditions: J Am Soc Nephrol 30: 50-62, 2019; cited from earlier work.

Square brackets hold non-standard residues; d marks the D form. βAla = NCCC(=O)O

human NPM1, sequence (P06748 whole entry, the tested form may be a part): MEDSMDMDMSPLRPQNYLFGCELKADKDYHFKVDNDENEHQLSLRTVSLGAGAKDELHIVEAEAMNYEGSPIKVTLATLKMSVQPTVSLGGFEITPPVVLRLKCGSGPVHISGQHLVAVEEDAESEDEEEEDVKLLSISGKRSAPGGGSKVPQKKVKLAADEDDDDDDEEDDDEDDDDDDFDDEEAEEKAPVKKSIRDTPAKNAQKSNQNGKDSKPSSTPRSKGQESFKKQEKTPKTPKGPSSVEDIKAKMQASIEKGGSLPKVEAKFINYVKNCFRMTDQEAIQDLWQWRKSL
human nucleophosmin (NPM1) (Homo sapiens, UniProt P06748), sequence (P06748 whole entry): as the sequence (P06748 whole entry, the tested form may be a part) above

Consider “Ac-PKKKRKV-Bala-TATIAVAGVLTASLTIWKKMG-OMe [NPMB1-X-012]”, for which, in assay [1], the “Cell survival data (ranking of peptides)” value is given as “most effective” and the “Cytoprotective effects during ischemic stress in vitro” value is given as “most robust protection”. In the assay with human NPM1, the “Kd / NPM1 binding affinity in words” value was “relatively low Kd values”.

For the substance “Ac-PKKKRKV-Bala-TATLFVAGVLTASLTIWKKMG-OMe [NPMB1-X-013]”, in assay [1], the “Cell survival data (ranking of peptides)” value is on record as “most effective” and the “Cytoprotective effects during ischemic stress in vitro” value is listed as “most robust protection”. Moreover, the “Kd / NPM1 binding affinity in words” value in the assay with human NPM1 is listed as “relatively low Kd values”.

For the substance “Ac-PKKKRKV-Bala-TVTIFVAGVLTASLTIWKKMG-OH [NPMB1, prototype peptide, positive control]”, the “Binding to human nucleophosmin (NPM1)” value in assay [2] is listed as “binds”. The NPM/Bax protein interaction result in assay [3] was “competitively inhibits”. Besides, the “Kidney cell death in an in vivo mouse model of ischemic AKI” value in assay [4] is on record as “inhibits kidney cell death”. In assay [5], the “Kidney cell death in a cell-based assay” value was “inhibits kidney cell death”.

On to “Ac-PKKKRKV-Bala-TVTLFVAGVLTASLTIWKKMG-OMe [NPMB1-V-001]”, for which, in assay [1] (alanine scan and pro-helical mutations), the “Degree of cytoprotection during ischemic stress” value is recorded as “highly effective”. Further, the “Cell survival data (ranking of peptides)” value in assay [1] is “most effective”. Besides, in the assay with human NPM1, the “Kd / NPM1 binding affinity in words” value was “relatively low NPM1 binding affinity”.

On to “Ac-RREEERREEERREEEK-Bala-TVTIFVAGVLTASLTIWKKMG-OH (Ac-RREEERREEERREEEK[βAla]TVTIFVAGVLTASLTIWKKMG-OH; SMILES CC[C@H](C)[C@H](NC(=O)[C@@H](NC(=O)[C@H](CC(C)C)NC(=O)[C@H](CO)NC(=O)[C@H](C)NC(=O)[C@@H](NC(=O)[C@H](CC(C)C)NC(=O)[C@@H](NC(=O)CNC(=O)[C@H](C)NC(=O)[C@@H](NC(=O)[C@H](Cc1ccccc1)NC(=O)[C@@H](NC(=O)[C@@H](NC(=O)[C@@H](NC(=O)[C@@H](NC(=O)CCNC(=O)[C@H](CCCCN)NC(=O)[C@H](CCC(=O)O)NC(=O)[C@H](CCC(=O)O)NC(=O)[C@H](CCC(=O)O)NC(=O)[C@H](CCCNC(=N)N)NC(=O)[C@H](CCCNC(=N)N)NC(=O)[C@H](CCC(=O)O)NC(=O)[C@H](CCC(=O)O)NC(=O)[C@H](CCC(=O)O)NC(=O)[C@H](CCCNC(=N)N)NC(=O)[C@H](CCCNC(=N)N)NC(=O)[C@H](CCC(=O)O)NC(=O)[C@H](CCC(=O)O)NC(=O)[C@H](CCC(=O)O)NC(=O)[C@H](CCCNC(=N)N)NC(=O)[C@H](CCCNC(=N)N)NC(C)=O)[C@@H](C)O)C(C)C)[C@@H](C)O)[C@@H](C)CC)C(C)C)C(C)C)[C@@H](C)O)[C@@H](C)O)C(=O)N[C@@H](Cc1c[nH]c2ccccc12)C(=O)N[C@@H](CCCCN)C(=O)N[C@@H](CCCCN)C(=O)N[C@@H](CCSC)C(=O)NCC(=O)O) [NPMB1-I-011]”, for which, in the assay with human NPM1, the “Kd / NPM1 binding affinity in words” value is reported as “relatively low Kd”.
